Among the data in patent publication US20240409585A1, “MACROCYCLIC IMMUNOMODULATORS” (priority 2021, published 2024) are IC50 values, retold here.

Numbered stars: 1 amine (or outer) side, 2 acyl side, 3 side chain; on linkers, the order of the positions; unused ones are H or OH. Bridge positions count the residues as written; N and C are the ends. Square brackets hold non-standard residues; d marks the D form. Peptide text beside a SMILES is read from it. * marks the point of attachment. ξ: configuration not given here. X35 = O=C([C@H](Cc1ccc(-c2cccc(F)c2)cc1)N[*:1])[*:2]; Phe(4-COOH) = N[C@@H](Cc1ccc(C(=O)O)cc1)C(=O)O; Bip = N[C@@H](Cc1ccc(-c2ccccc2)cc1)C(=O)O; Phe(3-Me) = Cc1cccc(C[C@H](N)C(=O)O)c1; Phe(2-F) = N[C@@H](Cc1ccccc1F)C(=O)O; Bta = N[C@@H](Cc1csc2ccccc12)C(=O)O; Val(3-OH) = CC(C)(O)[C@H](N)C(=O)O; 3Pal = N[C@@H](Cc1cccnc1)C(=O)O; 4Pal = N[C@@H](Cc1ccncc1)C(=O)O; Cha = N[C@@H](CC1CCCCC1)C(=O)O; Cit = NC(=O)NCCC[C@H](N)C(=O)O; Ile(3ξ) = CCC(C)[C@H](N)C(=O)O; Thr(3ξ) = CC(O)[C@H](N)C(=O)O; Carboxymethyl = O=C(O)C*; NMeA = CN[C@@H](C)C(=O)O; Orn = NCCC[C@H](N)C(=O)O; Dab = NCC[C@H](N)C(=O)O

T1 sequence (Q15116 25-288): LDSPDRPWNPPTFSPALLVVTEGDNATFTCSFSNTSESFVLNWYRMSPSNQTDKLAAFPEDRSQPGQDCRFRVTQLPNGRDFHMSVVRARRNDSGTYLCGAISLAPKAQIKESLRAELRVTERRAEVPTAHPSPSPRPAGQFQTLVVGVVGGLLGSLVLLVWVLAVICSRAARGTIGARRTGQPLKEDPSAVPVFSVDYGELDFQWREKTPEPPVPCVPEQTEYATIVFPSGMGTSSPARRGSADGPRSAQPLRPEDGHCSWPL

The assay concerns the target T1, PE-labeled human PD-L1-Ig binding to Jurkat cell line over-expressing human PD-1 (Jurkat-PD-1) (Homo sapiens, UniProt Q15116).
T1 construct: expressed in transfected cells; host or cells: Jurkat
The assay is described as follows: Jurkat-PD-1 Cell Binding High-Content Screening Assay (CBA): Method 1. As to conditions: Jurkat-hPD-1 cells, PE-labeled PD-L1-Ig 20 nM final; read-out: Jurkat HPDL1 PD1 IC50 (uM) (Method 1).
Consider `CC(C)C[C@@H]1NC(=O)[C@H](Cc2c[nH]c3ccccc23)NC(=O)[C@H](CC(=O)O)NC(=O)[C@H](Cc2ccccc2F)NC(=O)[C@H](Cc2ccccc2)NC(=O)CSC[C@@H](C(=O)N[C@@H](C)C(N)=O)NC(=O)[C@H](CO)NC(=O)[C@H](C(C)C)NC(=O)[C@H](CC(C)C)NC(=O)[C@H](CC(N)=O)NC(=O)[C@@H](C)NC(=O)[C@H](C)N(C)C(=O)[C@H](C(C)C)NC(=O)[C@H](Cc2ccc(-c3ccccc3)cc2)NC1=O` [Compound 1735] ({CH2CO}-F[Phe(2-F)]DWL[Bip]V[NMeA][dA]NLVSCA-NH2; thioether N-14), for which the IC50 stood at 0.02 µM.
Then `CC(C)C[C@@H]1NC(=O)[C@H](Cc2c[nH]c3ccccc23)NC(=O)[C@H](CC(=O)O)NC(=O)[C@H](Cc2ccc(O)cc2)NC(=O)[C@H](Cc2ccccc2)NC(=O)CSC[C@@H](C(=O)N[C@@H](C)C(N)=O)NC(=O)[C@H](CO)NC(=O)[C@H](C(C)C)NC(=O)[C@H](CC(C)C)NC(=O)[C@H](CC(N)=O)NC(=O)[C@@H](C(C)C)NC(=O)[C@H](C)N(C)C(=O)[C@H](C(C)C)NC(=O)[C@H](Cc2ccc(-c3ccccc3)cc2)NC1=O` [Compound 1771] ({CH2CO}-FYDWL[Bip]V[NMeA][dV]NLVSCA-NH2; thioether N-14), with 0.04 µM.
Then `CC(C)C[C@@H]1NC(=O)[C@H](Cc2c[nH]c3ccccc23)NC(=O)[C@H](CC(=O)O)NC(=O)[C@H](Cc2ccc(O)cc2)NC(=O)[C@H](Cc2ccccc2)NC(=O)CSC[C@@H](C(=O)N[C@@H](C)C(N)=O)NC(=O)[C@H](CO)NC(=O)[C@H](C(C)C)NC(=O)[C@H](CC(C)C)NC(=O)[C@H](CCC(=O)O)NC(=O)[C@@H](C)NC(=O)[C@H](C)N(C)C(=O)[C@H](C(C)C)NC(=O)[C@H](Cc2ccc(-c3ccccc3)cc2)NC1=O` [Compound 1749] ({CH2CO}-FYDWL[Bip]V[NMeA][dA]ELVSCA-NH2; thioether N-14), with 0.02 µM; and `CC(C)C[C@@H]1NC(=O)[C@H](CCCNC(=N)N)NC(=O)[C@H](Cc2csc3ccccc23)NC(=O)[C@H](C)N(C)C(=O)[C@H](CCCNC(=N)N)NC(=O)[C@H](Cc2ccc(-c3ccccc3)cc2)NC(=O)[C@H](C(C)C)NC(=O)[C@H](Cc2c[nH]c3ccccc23)NC(=O)[C@H](CC(=O)O)NC(=O)[C@H](Cc2ccc(O)cc2)NC(=O)[C@H](CC(N)=O)NC(=O)CSC[C@@H](C(=O)N[C@@H](C)C(N)=O)NC(=O)[C@H](CO)NC(=O)[C@H](C(C)C)NC1=O` [Compound 1055] ({CH2CO}-NYDWV[Bip]R[NMeA][Bta]RLVSCA-NH2; thioether N-14), with 0.11 µM.
As for `CCC(C)[C@@H]1NC(=O)[C@H](Cc2ccc(-c3ccccc3)cc2)NC(=O)[C@H](C(C)C)NC(=O)[C@H](Cc2c[nH]c3ccccc23)NC(=O)[C@H](CC(=O)O)NC(=O)[C@H](Cc2ccc(OCC(=O)O)cc2)NC(=O)[C@H](C(C)O)NC(=O)CSC[C@@H](C(N)=O)NC(=O)[C@H](CO)NC(=O)[C@H](C(C)C)NC(=O)[C@H](CC2CCCCC2)NC(=O)[C@H](CCN)NC(=O)[C@@H](CC(C)C)NC(=O)[C@H](C)N(C)C1=O` (stereo partly drawn) [Compound 2251] ({CH2CO}-[Thr(3ξ)]Y(Carboxymethyl)DWV[Bip][Ile(3ξ)][NMeA][dL][Dab][Cha]VSC-NH2; thioether N-14), the IC50 worked out at 0.02 µM.
As for `CC(C)C[C@@H]1NC(=O)[C@H](CCN)NC(=O)[C@@H](CC(C)C)NC(=O)[C@H](C)N(C)C(=O)[C@H](Cc2cnc[nH]2)NC(=O)[C@H](Cc2ccc(-c3ccccc3)cc2)NC(=O)[C@H](C(C)C)NC(=O)[C@H](Cc2c[nH]c3ccccc23)NC(=O)[C@H](CC(=O)O)NC(=O)[C@H](Cc2ccc(OCC(=O)O)cc2)NC(=O)[C@H](CC(N)=O)NC(=O)CSC[C@@H](C(=O)N[C@@H](C)C(N)=O)NC(=O)[C@H]([C@@H](C)O)NC(=O)[C@H](C(C)C)NC1=O` [Compound 1388] ({CH2CO}-NY(Carboxymethyl)DWV[Bip]H[NMeA][dL][Dab]LVTCA-NH2; thioether N-14), the figure is 0.06 µM; as for `CC(=O)NCCCC[C@@H]1NC(=O)[C@H](C(C)C)NC(=O)[C@H](CC2CCCCC2)NC(=O)[C@H](CCN)NC(=O)[C@@H](CC(C)C)NC(=O)[C@H](C)N(C)C(=O)[C@H](CCC(N)=O)NC(=O)[C@H](Cc2ccc(-c3ccccc3)cc2)NC(=O)[C@H](Cc2ccc(OCC(=O)O)cc2)NC(=O)[C@H](Cc2cccc(C)c2)NC(=O)[C@H](CC(=O)O)NC(=O)[C@H](Cc2ccc(OCC(=O)O)cc2)NC(=O)[C@H](Cc2ccncc2)NC(=O)CSC[C@@H](C(=O)N[C@@H](CCN)C(N)=O)NC1=O` [Compound 2203] ({CH2CO}-[4Pal]Y(Carboxymethyl)D[Phe(3-Me)]Y(Carboxymethyl)[Bip]Q[NMeA][dL][Dab][Cha]VK(Ac)C[Dab]-NH2; thioether N-14), 0.01 µM; as for `COc1ccc(C[C@@H]2NC(=O)[C@H](Cc3ccccc3)NC(=O)CSC[C@@H](C(=O)N[C@@H](C)C(N)=O)NC(=O)[C@H]([C@@H](C)O)NC(=O)[C@H](C(C)C)NC(=O)[C@H](CC(C)C)NC(=O)[C@H](CCCNC(=N)N)NC(=O)[C@@H](CC(C)C)NC(=O)[C@H](C)N(C)C(=O)[C@H](CCCNC(=N)N)NC(=O)[C@H](Cc3ccc(-c4ccccc4)cc3)NC(=O)[C@H](C(C)C)NC(=O)[C@H](Cc3c[nH]c4ccccc34)NC(=O)[C@H](CC(=O)O)NC2=O)cc1` [Compound 1091] ({CH2CO}-FY(Me)DWV[Bip]R[NMeA][dL]RLVTCA-NH2; thioether N-14), 0.09 µM.
Turning to `Cc1cccc(C[C@@H]2NC(=O)[C@H](CC(=O)O)NC(=O)[C@H](Cc3ccc(O)cc3)NC(=O)[C@H](CC(N)=O)NC(=O)CSC[C@@H](C(=O)N[C@@H](CCN)C(N)=O)NC(=O)[C@H]([C@@H](C)O)NC(=O)[C@H](C(C)(C)O)NC(=O)[C@H](CC3CCCCC3)NC(=O)[C@H](CCN)NC(=O)[C@@H](CC(C)C)NC(=O)[C@H](C)N(C)C(=O)[C@H](CCCNC(N)=O)NC(=O)[C@H](Cc3ccc(-c4ccccc4)cc3)NC(=O)[C@H](C(C)(C)O)NC2=O)c1` [Compound 1705] ({CH2CO}-NYD[Phe(3-Me)][Val(3-OH)][Bip][Cit][NMeA][dL][Dab][Cha][Val(3-OH)]TC[Dab]-NH2; thioether N-14), the IC50 was 0.03 µM.
As for `Cc1cccc(C[C@@H]2NC(=O)[C@H](CC(=O)O)NC(=O)[C@H](Cc3ccncc3)NC(=O)[C@H](Cc3ccc(OCC(=O)O)cc3)NC(=O)CSC[C@@H](C(=O)N[C@@H](C)C(N)=O)NC(=O)[C@H](CO)NC(=O)[C@H](C(C)C)NC(=O)[C@H](CC(C)C)NC(=O)[C@H](CC(N)=O)NC(=O)[C@@H](C)NC(=O)[C@H](C)N(C)C(=O)[C@H](C(C)C)NC(=O)[C@H](Cc3ccc(-c4ccccc4)cc3)NC(=O)[C@H](CC(C)C)NC2=O)c1` [Compound 1583] ({CH2CO}-Y(Carboxymethyl)[4Pal]D[Phe(3-Me)]L[Bip]V[NMeA][dA]NLVSCA-NH2; thioether N-14), the IC50 stood at 0.01 µM.
As to `CC(C)C[C@@H]1NC(=O)[C@H](CCN)NC(=O)[C@@H](CC(C)C)NC(=O)[C@H](C)N(C)C(=O)[C@H](CCCN)NC(=O)[C@H](Cc2ccc(-c3ccccc3)cc2)NC(=O)[C@H](C(C)C)NC(=O)[C@H](Cc2c[nH]c3ccccc23)NC(=O)[C@H](CC(=O)O)NC(=O)[C@H](Cc2ccc(O)cc2)NC(=O)[C@H](Cc2ccccc2)NC(=O)CSC[C@@H](C(=O)N[C@@H](C)C(N)=O)NC(=O)[C@H]([C@@H](C)O)NC(=O)[C@H](C(C)C)NC1=O` [Compound 1121] ({CH2CO}-FYDWV[Bip][Orn][NMeA][dL][Dab]LVTCA-NH2; thioether N-14), the half-inhibitory concentration (IC50) worked out at 0.06 µM.
Take `CC(C)C[C@@H]1NC(=O)[C@H](Cc2c[nH]c3ccccc23)NC(=O)[C@H](CC(=O)O)NC(=O)[C@H](Cc2ccc(O)cc2)NC(=O)[C@H](Cc2ccccc2)NC(=O)CSC[C@@H](C(=O)N[C@@H](C)C(N)=O)NC(=O)[C@H](CO)NC(=O)[C@H](C(C)C)NC(=O)[C@H](CC(C)C)NC(=O)[C@H](CC(N)=O)NC(=O)[C@@H](C)NC(=O)[C@H](C)N(C)C(=O)[C@H](C(C)C)NC(=O)[C@H](Cc2ccc(-c3cccc(F)c3)cc2)NC1=O` [Compound 1759] ({CH2CO}-FYDWL[X35]V[NMeA][dA]NLVSCA-NH2; thioether N-14): the IC50 was determined as 0.03 µM.
With `Cc1cccc(C[C@@H]2NC(=O)[C@H](CC(=O)O)NC(=O)[C@H](Cc3ccc(OCC(=O)O)cc3)NC(=O)[C@H](Cc3ccncc3)NC(=O)CSC[C@@H](C(N)=O)NC(=O)[C@H]([C@@H](C)O)NC(=O)[C@H](C(C)C)NC(=O)[C@H](CC3CCCCC3)NC(=O)[C@H](CCN)NC(=O)[C@@H](CC(C)C)NC(=O)[C@H](C)N(C)C(=O)[C@H](Cc3ccc(OCC(=O)O)cc3)NC(=O)[C@H](Cc3ccc(-c4ccccc4)cc3)NC(=O)[C@H](Cc3ccc(OCC(=O)O)cc3)NC2=O)c1` [Compound 1660] ({CH2CO}-[4Pal]Y(Carboxymethyl)D[Phe(3-Me)]Y(Carboxymethyl)[Bip]Y(Carboxymethyl)[NMeA][dL][Dab][Cha]VTC-NH2; thioether N-14), the IC50 was found to be 0.02 µM.
As to `CC(C)C[C@@H]1NC(=O)[C@H](CCN)NC(=O)[C@@H](CC(C)C)NC(=O)[C@H](C)N(C)C(=O)[C@H](CCCNC(N)=O)NC(=O)[C@H](Cc2ccc(-c3ccccc3)cc2)NC(=O)[C@H](C(C)C)NC(=O)[C@H](Cc2c[nH]c3ccccc23)NC(=O)[C@H](CC(=O)O)NC(=O)[C@H](Cc2ccc(C(=O)O)cc2)NC(=O)[C@H](Cc2cccnc2)NC(=O)CSC[C@@H](C(=O)N[C@@H](C)C(N)=O)NC(=O)[C@H]([C@@H](C)O)NC(=O)[C@H](C(C)C)NC1=O` [Compound 1332] ({CH2CO}-[3Pal][Phe(4-COOH)]DWV[Bip][Cit][NMeA][dL][Dab]LVTCA-NH2; thioether N-14), the concentration for half-maximal inhibition (IC50) was determined as 0.03 µM.
Take `Cc1cccc(C[C@@H]2NC(=O)[C@H](CC(=O)O)NC(=O)[C@H](Cc3ccc(C(=O)O)cc3)NC(=O)[C@H](Cc3ccncc3)NC(=O)CSC[C@@H](C(=O)N[C@@H](CCN)C(N)=O)NC(=O)[C@H](CO)NC(=O)[C@H](C(C)(C)O)NC(=O)[C@H](CC3CCCCC3)NC(=O)[C@H](CCN)NC(=O)[C@@H](CC(C)C)NC(=O)[C@H](C)N(C)C(=O)[C@H](Cc3ccc(C(=O)O)cc3)NC(=O)[C@H](Cc3ccc(-c4ccccc4)cc3)NC(=O)[C@H](Cc3ccc(OCC(=O)O)cc3)NC2=O)c1` [Compound 2184] ({CH2CO}-[4Pal][Phe(4-COOH)]D[Phe(3-Me)]Y(Carboxymethyl)[Bip][Phe(4-COOH)][NMeA][dL][Dab][Cha][Val(3-OH)]SC[Dab]-NH2; thioether N-14): the half-maximal inhibitory concentration (IC50) came out at 0.04 µM.
